Experimental findings from ChEMBL document CHEMBL1201862, “PubChem BioAssay data set” (2004) are described below.

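Protocol summary: plate cells (96-well), add compound at 5 concentrations, incubate 48 h, interpolate endpoints linearly. Abbreviation: GI50, concentration required for 50% inhibition of growth.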 Activity calls are given as the source filed them. Cut-off read from the data, not from the text of the source: active = GI50 up to about 1.1 µM and inactive = higher.

Among the test systems are A549; CAKI-1; EKVX; HCC 2998; Hs-578T; IGROV-1; LOX IMVI; M14; MDA-MB-231; Malme-3M; NCI-H23; NCI-H460; NCI/ADR-RES; OVCAR-3; PC-3; RPMI-8226; SF-295; SK-OV-3; UACC-62; SK-MEL-2.
Experiment in all cases: inhibition of tumour cell growth, NCI panel, 48 h

`OCCSCc1cc(Cl)cc(Cl)c1O`: the GI50 with A549, in the experiment with CAKI-1, with EKVX, in the experiment with HCC 2998, in the experiment on Hs-578T and in the experiment on IGROV-1 was > 100 µM (inactive) throughout. Besides, the GI50 in the experiment with LOX IMVI, with M14, in the experiment on MDA-MB-231, in the experiment on Malme-3M, in the experiment on NCI-H23 and in the experiment on NCI-H460 was > 100 µM (inactive) in each case. The GI50 in the experiment with NCI/ADR-RES, in the experiment with OVCAR-3, in the experiment with PC-3, with RPMI-8226, with SF-295 and with SK-OV-3 was > 100 µM (inactive) throughout. Besides, the GI50 with UACC-62 was > 100 µM (inactive).

As to `CS(=O)(=O)C[S+]([O-])C[S+]([O-])C[S+]([O-])CC(NC(=O)CCC(N)C(=O)O)C(=O)O` (stereo not drawn), the GI50 with A549 is > 100 µM (inactive); with CAKI-1, > 100 µM (inactive); in the experiment on EKVX it was > 100 µM (inactive); in the experiment with HCC 2998, > 100 µM (inactive); in the experiment on Hs-578T, 51.8 µM (inactive); in the experiment with IGROV-1 it was > 100 µM (inactive). The GI50 in the experiment with LOX IMVI, with M14, in the experiment with MDA-MB-231, in the experiment on NCI-H23, with NCI-H460 and with NCI/ADR-RES was > 100 µM (inactive) each time. Moreover, the GI50 with OVCAR-3, with PC-3, in the experiment on RPMI-8226, with SF-295, in the experiment on SK-MEL-2 and in the experiment with UACC-62 was > 100 µM (inactive) in each case.

Take `Cc1c(C)c2c(c(N)c1C#N)C(=O)N(O)C2=O`: the GI50 in the experiment on A549, in the experiment on CAKI-1, with EKVX, in the experiment on HCC 2998, in the experiment on Hs-578T and with IGROV-1 was > 100 µM (inactive) in each case. The GI50 in the experiment on M14, with MDA-MB-231, in the experiment on Malme-3M, in the experiment on NCI-H23, with NCI-H460 and with NCI/ADR-RES was > 100 µM (inactive) throughout. The GI50 in the experiment with OVCAR-3, in the experiment on PC-3, with RPMI-8226, in the experiment on SF-295, in the experiment on SK-MEL-2 and in the experiment on SK-OV-3 was > 100 µM (inactive) in each case. Besides, the GI50 in the experiment on UACC-62 was > 100 µM (inactive).

`COc1cc2c(c3c1c(=O)c1ccccc1n3C)C=C([N+](=O)[O-])C(C)(C)O2`: the GI50 in the experiment on A549 was 0.0247 µM (active); with CAKI-1 it was 0.223 µM (active); in the experiment with HCC 2998, 0.325 µM (active); in the experiment with Hs-578T, 25.6 µM (inactive); with IGROV-1, 0.575 µM (active); in the experiment with LOX IMVI, 0.138 µM (active). Moreover, the GI50 with M14 was 0.157 µM (active); in the experiment on MDA-MB-231, 1.08 µM (active); in the experiment on NCI-H23, 0.395 µM (active); with NCI-H460, < 0.0201 µM (active); with NCI/ADR-RES, 2.09 µM (inactive); with OVCAR-3, > 100 µM (inactive). For the same compound, the GI50 is > 100 µM (inactive) in the experiment with PC-3; > 31.6 µM (inactive) in the experiment on RPMI-8226; 0.647 µM (active) with SF-295; 0.0991 µM (active) in the experiment with SK-MEL-2; 0.356 µM (active) with SK-OV-3; 0.769 µM (active) in the experiment on UACC-62.

In the case of `N/C(CCSCCSCC/C(N)=N\O)=N\O`, the GI50 in the experiment on A549, with CAKI-1, in the experiment on EKVX, in the experiment with HCC 2998, in the experiment with Hs-578T and in the experiment with IGROV-1 was > 100 µM (inactive) in each case. Moreover, the GI50 in the experiment with LOX IMVI, in the experiment on M14, with MDA-MB-231, in the experiment with Malme-3M, with NCI-H23 and with NCI-H460 was > 100 µM (inactive) throughout. Also, the GI50 in the experiment on NCI/ADR-RES, in the experiment on OVCAR-3, with PC-3, in the experiment on RPMI-8226, in the experiment on SK-OV-3 and in the experiment on UACC-62 was > 100 µM (inactive) each time.

As to `N#C/C(=C\NC(=S)c1ccncc1)c1nc2ccccc2s1`, the GI50 in the experiment on A549 is > 100 µM (inactive); in the experiment on CAKI-1 it was > 100 µM (inactive); in the experiment on EKVX, 67.1 µM (inactive); in the experiment with HCC 2998 it was 21.7 µM (inactive); with Hs-578T, > 100 µM (inactive); with IGROV-1, > 100 µM (inactive). The GI50 is > 100 µM (inactive) with LOX IMVI; > 100 µM (inactive) in the experiment with M14; 39.6 µM (inactive) in the experiment on MDA-MB-231; 51.2 µM (inactive) in the experiment on NCI-H23; 68.7 µM (inactive) in the experiment with NCI-H460; > 100 µM (inactive) in the experiment with NCI/ADR-RES. The GI50 with OVCAR-3 was 43.4 µM (inactive); with PC-3 it was > 100 µM (inactive); in the experiment on RPMI-8226, > 100 µM (inactive); in the experiment with SF-295, > 100 µM (inactive); in the experiment with SK-MEL-2, 82.2 µM (inactive); in the experiment on SK-OV-3, > 100 µM (inactive). For the same compound, the GI50 in the experiment on UACC-62 is > 100 µM (inactive).

Consider `C[C@@H]1[C@H](C)N1CC(O)Cn1ccnc1[N+](=O)[O-]` (stereo partly drawn), for which the GI50 in the experiment with A549, with CAKI-1, in the experiment on EKVX, in the experiment with HCC 2998, in the experiment with Hs-578T and with IGROV-1 was > 100 µM (inactive) throughout. The GI50 with LOX IMVI, with M14, in the experiment with MDA-MB-231, in the experiment with Malme-3M, in the experiment on NCI-H23 and with NCI-H460 was > 100 µM (inactive) in each case. In addition, the GI50 in the experiment on NCI/ADR-RES, with OVCAR-3, with PC-3, in the experiment on SF-295, in the experiment on SK-MEL-2 and with SK-OV-3 was > 100 µM (inactive) in each case. Also, in the experiment with UACC-62, the GI50 is > 100 µM (inactive).

Consider `Cc1ccc(S(=O)(=O)NC(=O)Nc2nc[nH]n2)cc1`, for which the GI50 with A549, in the experiment with CAKI-1, in the experiment on EKVX, with HCC 2998, in the experiment with Hs-578T and in the experiment on IGROV-1 was > 100 µM (inactive) in each case. For the same compound, the GI50 in the experiment on M14, in the experiment with MDA-MB-231, in the experiment with Malme-3M, with NCI-H23, with NCI-H460 and with NCI/ADR-RES was > 100 µM (inactive) each time. The GI50 with OVCAR-3, in the experiment on PC-3, in the experiment on RPMI-8226, in the experiment on SF-295, with SK-MEL-2 and with SK-OV-3 was > 100 µM (inactive) throughout. The GI50 in the experiment on UACC-62 was > 100 µM (inactive).

For the compound `O=S(=O)(c1ccccc1)C(c1ccc2ccccc2n1)S(=O)(=O)c1ccccc1`, the GI50 in the experiment on A549 is > 100 µM (inactive); in the experiment with CAKI-1, > 100 µM (inactive); with EKVX, > 100 µM (inactive); in the experiment with HCC 2998, 48.5 µM (inactive); in the experiment with Hs-578T, > 100 µM (inactive); in the experiment with IGROV-1, > 100 µM (inactive). The GI50 in the experiment on LOX IMVI, in the experiment with MDA-MB-231, in the experiment with Malme-3M, with NCI-H23, in the experiment with NCI-H460 and in the experiment with NCI/ADR-RES was > 100 µM (inactive) each time. Also, the GI50 with OVCAR-3, with PC-3, in the experiment on RPMI-8226 and in the experiment with SF-295 was > 100 µM (inactive) in each case.

Turning to `CC1C/C(=C\c2ccc(OC(=O)C(C)(C)C)cc2)C(=O)/C(=C/c2ccc(OC(=O)C(C)(C)C)cc2)C1` (stereo not drawn), the GI50 was 40.6 µM (inactive) in the experiment with A549; > 100 µM (inactive) in the experiment on CAKI-1; > 100 µM (inactive) in the experiment with EKVX; > 100 µM (inactive) in the experiment on HCC 2998; 49.3 µM (inactive) with Hs-578T; 7.64 µM (inactive) in the experiment on IGROV-1. The GI50 is 35.6 µM (inactive) with LOX IMVI; > 100 µM (inactive) in the experiment with M14; 59.3 µM (inactive) in the experiment on MDA-MB-231; > 100 µM (inactive) with Malme-3M; 24 µM (inactive) in the experiment on NCI-H23; > 100 µM (inactive) in the experiment with NCI-H460. Besides, the GI50 with NCI/ADR-RES is > 100 µM (inactive); in the experiment with OVCAR-3 it was 68.4 µM (inactive); in the experiment on PC-3, 72.4 µM (inactive); in the experiment on SF-295 it was 81.5 µM (inactive); with SK-MEL-2, 61 µM (inactive); in the experiment with SK-OV-3, > 100 µM (inactive). In addition, in the experiment with UACC-62, the GI50 is 95.5 µM (inactive).

Take `COc1ccc(OC)c(/C=C/c2cnnc3ccccc23)c1`: the GI50 in the experiment with A549 is 3.27 µM (inactive); in the experiment with CAKI-1, 4.61 µM (inactive); in the experiment with EKVX it was 4.15 µM (inactive); in the experiment with HCC 2998 it was 5.27 µM (inactive); with Hs-578T it was 1.43 µM (inactive); in the experiment with IGROV-1 it was > 10 µM (inactive). Besides, the GI50 in the experiment on LOX IMVI is 3.48 µM (inactive); in the experiment on M14, 5.21 µM (inactive); with MDA-MB-231, 9.46 µM (inactive); in the experiment on NCI-H23 it was 4.8 µM (inactive); in the experiment on NCI-H460 it was 4.11 µM (inactive); in the experiment with NCI/ADR-RES, 2.39 µM (inactive). Besides, the GI50 in the experiment with OVCAR-3 was 3.94 µM (inactive); in the experiment with PC-3, 7.69 µM (inactive); with RPMI-8226 it was 3.16 µM (inactive); with SF-295, 5.4 µM (inactive); in the experiment with SK-MEL-2 it was 2.16 µM (inactive); in the experiment with SK-OV-3, 5.5 µM (inactive). Further, the GI50 in the experiment on UACC-62 was 3.74 µM (inactive).
